The text below walks through data of patent US20170334899A1, “AMINO-SUBSTITUTED ISOTHIAZOLES” (Bayer Pharma Aktiengesellschaft, priority 2014, published 2017).

Assay type in all cases: cell-based
For experiment [1], the system named is HeLa. Briefly: Proliferation assay (crystal violet), HeLa. As to conditions: Homo sapiens, HeLa, 96 h, HeLa cells; 4 days incubation; crystal violet staining; read-out: IC50 inhibition of proliferation, HeLa. The method in brief:
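Tumor cells seeded at 1000–5000 cells/well in medium with 10% FCS; after 24 h, compounds added at 0.001–10 μM (0.5% DMSO) for 4 days. Cells fixed with glutaraldehyde, stained with crystal violet, dye dissolved in acetic acid and read at 595 nm. IC50 from 4-parameter fit, normalized to zero-point plate and untreated cells.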

Experiment [2] deals with HeLa-MaTu-ADR. Briefly: Proliferation assay (crystal violet), HeLa-MaTu-ADR. The settings on record: 96 h; HeLa-MaTu-ADR cells; 4 days incubation; crystal violet staining; read-out: IC50 inhibition of proliferation, HeLa-MaTu-ADR. As to the method:
(§1) Cultivated tumor cells (cells were ordered from ATCC, except HeLa-MaTu and HeLa-MaTu-ADR, which were ordered from EPO-GmbH, Berlin) were plated at a density of 1000 to 5000 cells/well, depending on the growth rate of the respective cell line, in a 96-well multititer plate in 200 μL of their respective growth medium supplemented 10% fetal calf serum. After 24 hours, the cells of one plate (zero-point plate) were stained with crystal violet (see below), while the medium of the other plates was replaced by fresh culture medium (200 μl), to which the test substances were added in various concentrations (0 μM, as well as in the range of 0.001-10 μM; the final concentration of the solvent dimethyl sulfoxide was 0.5%). The cells were incubated for 4 days in the presence of test substances. Cell proliferation was determined by staining the cells with crystal violet: the cells were fixed by adding 20 μl/measuring point of an 11% glutaric aldehyde solution for 15 minutes at room temperature. After three washing cycles of the fixed cells with water, the plates were dried at room temperature. The cells were stained by adding 100 μl/measuring point of a 0.1% crystal violet solution (pH 3.0). After three washing cycles of the stained cells with water, the plates were dried at room temperature. The dye was dissolved by adding 100 μl/measuring point of a 10% acetic acid solution. Absorbtion was determined by photometry at a wavelength of 595 nm. The change of cell number, in percent, was calculated by normalization of the measured values to the aborbtion values of the zero-point plate (=0%) and the absorbtion of the untreated (0 μm) cells (=100%). The IC50 values were determined by means of a 4 parameter fit.

Experiment [3] relates to NCI-H460. Briefly: Proliferation assay (crystal violet), NCI-H460. As to conditions: Homo sapiens, 96 h; NCI-H460 cells; 4 days incubation; crystal violet staining; read-out: IC50 inhibition of proliferation, NCI-H460. As for the experimental part:
as §1

Experiment [4] concerns DU145. Briefly: Proliferation assay (crystal violet), DU145. As to conditions: Homo sapiens, DU-145, 96 h; DU145 cells; 4 days incubation; crystal violet staining; read-out: IC50 inhibition of proliferation, DU145. As for the experimental part:
as §1

The subject of experiment [5] is Caco-2. Briefly: Proliferation assay (crystal violet), Caco-2. The settings on record: Homo sapiens, 96 h; Caco-2 cells; 4 days incubation; crystal violet staining; read-out: IC50 inhibition of proliferation, Caco2. As to the method: as §1
For experiment [6], the system named is B16F10. Briefly: Proliferation assay (crystal violet), B16F10. The settings on record: Mus musculus, B16-F10, 96 h; B16F10 cells; 4 days incubation; crystal violet staining; read-out: IC50 inhibition of proliferation, B16F10. As for the experimental part:
as §1

As for `Cc1nsc(Nc2cncc(C(F)(F)F)n2)c1C(=O)Nc1ccc(OC2CCN(CC(F)(F)F)CC2)nc1` [Example 16, 3-Methyl-N-(6-{[1-(2,2,2-trifluoroethyl)piperidin-4-yl]oxy}pyridin-3-yl)-5-{[6-(trifluoromethyl)pyrazin-2-yl]amino}-1,2-thiazole-4-carboxamide], the IC50 in experiment [1] amounted to 690 nM; in experiment [2], 290 nM; in experiment [3], 150 nM; in experiment [4], 720 nM; in experiment [5], 240 nM; in experiment [6], 290 nM.

Take `Cc1nsc(Nc2cnc3ccccc3n2)c1C(=O)Nc1ccc(OC2CCN(C(=O)OC(C)(C)C)CC2)nc1` [Example 18, tert-Butyl 4-{[5-({[3-methyl-5-(quinoxalin-2-ylamino)-1,2-thiazol-4-yl]carbonyl}-amino)pyridin-2-yl]oxy}piperidine-1-carboxylate]: the IC50 in experiment [1] amounted to 1200 nM; in experiment [2] it was 380 nM; in experiment [3], 640 nM; in experiment [4], 910 nM; in experiment [5], 270 nM; in experiment [6], 550 nM.

On to `Cc1nsc(Nc2cnc3ccccc3n2)c1C(=O)Nc1ccc(NCCC(=O)OC(C)(C)C)nc1` [Example 236, tert-butyl N-[5-({[3-methyl-5-(quinoxalin-2-ylamino)-1,2-thiazol-4-yl]carbonyl}amino)pyridin-2-yl]-beta-alaninate], for which the IC50 in experiment [1] was 4100 nM.

As to `COC(=O)c1cc(NC(=O)c2c(C)nsc2Nc2cnc3ccccc3n2)cc(C(=O)OC)c1` [Example 237, dimethyl 5-({[3-methyl-5-(quinoxalin-2-ylamino)-1,2-thiazol-4-yl]carbonyl}amino)isophthalate], in experiment [1], the IC50 is above 10000 nM.

Consider `Cc1nsc(Nc2cnc3ccccc3n2)c1C(=O)Nc1ccc(NCC2CCN(C(=O)OC(C)(C)C)CC2)nc1` [Example 238, tert-butyl 4-({[5-({[3-methyl-5-(quinoxalin-2-ylamino)-1,2-thiazol-4-yl]carbonyl}amino)pyridin-2-yl]amino}methyl)piperidine-1-carboxylate], for which the IC50 in experiment [1] was 8100 nM.

Consider `Cc1nsc(Nc2cc(C#N)ccn2)c1C(=O)Nc1cccc(C(=O)OC(C)(C)C)c1` [Example 239, tert-butyl 3-[({5-[(4-cyanopyridin-2-yl)amino]-3-methyl-1,2-thiazol-4-yl}carbonyl)amino]benzoate], for which, in experiment [1], the IC50 came to 1100 nM.

As for `Cc1nsc(Nc2ccc(C#N)cn2)c1C(=O)Nc1cccc(C(=O)OC(C)(C)C)c1` [Example 240, tert-butyl 3-[({5-[(5-cyanopyridin-2-yl)amino]-3-methyl-1,2-thiazol-4-yl}carbonyl)amino]benzoate], the IC50 in experiment [1] worked out at 750 nM.

Regarding `Cc1nsc(Nc2cnc3ccccc3n2)c1C(=O)Nc1ccc(NC2CCCN(C(=O)OC(C)(C)C)C2)nc1` (stereo not drawn) [Example 241, tert-butyl 3-{[5-({[3-methyl-5-(quinoxalin-2-ylamino)-1,2-thiazol-4-yl]carbonyl}amino)pyridin-2-yl]amino}piperidine-1-carboxylate], the IC50 in experiment [1] came to 9300 nM.

As for `Cc1nsc(Nc2cc(C#N)ccn2)c1C(=O)Nc1ccc(NC2CCCNC2)nc1` (stereo not drawn) [Example 242, 5-[(4-cyanopyridin-2-yl)amino]-3-methyl-N-[6-(piperidin-3-ylamino)pyridin-3-yl]-1,2-thiazole-4-carboxamide], the IC50 in experiment [1] is above 10000 nM.

Consider `Cc1cc(C)n(-c2ccccc2NC(=O)c2c(C)nsc2Nc2cnc3ccccc3n2)n1` [Example 243, N-[2-(3,5-dimethyl-1H-pyrazol-1-yl)phenyl]-3-methyl-5-(quinoxalin-2-ylamino)-1,2-thiazole-4-carboxamide], for which the IC50 in experiment [1] was above 10000 nM.

For the molecule `Cc1nsc(Nc2cnc3ccccc3n2)c1C(=O)Nc1ccc(NCCNC(=O)OC(C)(C)C)nc1` [Example 244, tert-butyl (2-{[5-({[3-methyl-5-(quinoxalin-2-ylamino)-1,2-thiazol-4-yl]carbonyl}amino)pyridin-2-yl]amino}ethyl)carbamate], the IC50 in experiment [1] was found to be 4200 nM.

For the molecule `Cc1nsc(Nc2cnc3ccccc3n2)c1C(=O)Nc1ccc(Nc2ccc(F)c(F)c2)nc1` [Example 245, N-{6-[(3,4-difluorophenyl)amino]pyridin-3-yl}-3-methyl-5-(quinoxalin-2-ylamino)-1,2-thiazole-4-carboxamide], the IC50 in experiment [1] came to 9900 nM.

In the case of `Cc1nsc(Nc2ccc(C#N)cn2)c1C(=O)Nc1ccc(S(C)(=O)=O)cc1` [Example 246, 5-[(5-cyanopyridin-2-yl)amino]-3-methyl-N-[4-(methylsulfonyl)phenyl]-1,2-thiazole-4-carboxamide], in experiment [1], the IC50 is 7300 nM.

As to `CCN(CC)CCNC(=O)c1cccc(NC(=O)c2c(C)nsc2Nc2cnccn2)c1` [Example 247, N-(3-{[2-(diethylamino)ethyl]carbamoyl}phenyl)-3-methyl-5-(pyrazin-2-ylamino)-1,2-thiazole-4-carboxamide], the IC50 in experiment [1] is above 10000 nM.
